From US20050244335A1, “Methods and compositions related to increasing antitumor activity of chemotherapeutic agents” (priority 2004, published 2005)

System: CD-1 mice
Assay type: in vivo
Details: CD-1 mice
Procedure: Male CD-1 mice, randomly divided into multiple treatment and control groups (10 mice/group), were given DEX by subcutaneous (s.c.) injection at doses of 0.01, 0.05, 0.1, 0.3 mg/mouse/day or saline (as controls) for 5 days prior to (day −4 to 0) or after (day 0 to 4) a single intraperitoneal (i.p.) injection of carboplatin (600 mg/m^2 or 200 mg/kg) on day 0. Animals were monitored daily for activity, physical condition, body weight and 14-day survival rates.
The significance of the differences among treated groups and controls were analyzed by ANOVA.

## N.N.O=C([O-])C1(C(=O)[O-])CCC1.[Pt+2] [carboplatin]
Carboplatin 600 mg/m^2 (200 mg/kg) i.p. alone (carboplatin controls), 14-day
  survival rate: 10%
Single i.p. dose of carboplatin alone 600 mg/m^2 (200 mg/kg)
  mortality rate: 90%
